“Also recorded” adds a separate entry of the source.
Tests used:
[1] = chronic injection of acetoacetate or 3HB to nude mice; assay type: in vivo; details: chronic injection for 4 weeks
[2] = tested on: NRAS Q61K-expressing HMCB cells; assay: HMCB xenograft in nude mice; assay type: in vivo; details: for BRAF-MEK1 binding in tumors / cell proliferation rates in tumors (Ki67 IHC staining) / phosphorylation of MEK1 and ERK1/2 (MEK-ERK activation) in tumors / xenograft tumor growth (growth rates, sizes, masses): single agent; for xenograft tumor growth (growth rates, sizes, masses): normal diet
[3] = serum and tumor metabolite levels and body weight of xenograft mice; assay type: in vivo
[4] = biological target: T1, BRAF V600E (Homo sapiens, UniProt P15056, V600E); assay: thermal melt shift assay, purified recombinant protein; assay type: binding
Protocol: Arrows in the panel indicate melting temperatures at 0 μM (left) and 400 μM (right).
(§1) Whether functional inhibition of acetoacetate would attenuate BRAF V600E tumor growth was examined. Dehydroacetic acid (DHAA) (FIG. 4A) is an inhibitory homologue of acetoacetate.

[5] = biological target: BRAF V600E-MEK1 binding (Homo sapiens, UniProt P15056, V600E); assay: cell-free in vitro coupled protein-protein binding and kinase assay; assay type: biochemical; details: substance alone
Protocol: (§2) Whether DHAA inhibits BRAF V600E directly was examined. […] In contrast, DHAA had no effect on BRAF WT-MEK1 binding or MEK1 phosphorylation in a control experiment using purified BRAF WT incubated with MEK1 in the presence of acetoacetate (FIG. 4I left panel). […] This is physiologically consistent with the acetoacetate levels determined as approximately 300 μM in stable HMGCL knockdown A375 and A2058 cells.

[6] = tested on: diverse BRAF V600E positive or negative human melanoma cells; assay: control treatments of melanoma cells; assay type: cell-based
Protocol: (§3) To exclude potential effects of the lithium ion, a series of experiments were performed using a control salt lithium chloride.
In addition, similar studies were performed to exclude possible effects from the potential degradation product of acetoacetate, acetone.

[7] = tested on: BRAF V600E-expressing human melanoma A375 cells; assay: A375 xenograft in nude mice; assay type: in vivo; details: for BRAF V600E-MEK1 binding in tumors / cell proliferation rates in tumors (Ki67 IHC staining) / xenograft tumor growth (growth rates, sizes, masses) / phosphorylation of MEK1 and ERK1/2 in tumors: single agent; for xenograft tumor growth (growth rates, sizes, masses): normal diet
[8] = tested on: BRAF V600E-expressing human melanoma A2058 cells; assay: A2058 xenograft in nude mice; assay type: in vivo
Excerpt: Xenograft tumor growth and in nude mice inoculated with BRAF V600E-positive human melanoma A2058 fed with normal or high-fat diets followed by intraperitoneal injection with DHAA.

[9] = tested on: control V600A mutant or other clinically reported BRAF mutants including K507E, N581S, D594N, L597Q, K601E, and S616F; assay: 14C-labeled acetoacetate binding assay, other BRAF mutants
Protocol: (§4) BRAF wild type and mutant proteins were incubated with increasing concentrations of ^14C-labeled acetoacetate.
(§5) A series of radiometric metabolite-protein interaction analyses were performed using ^14C labeled acetoacetate incubated with purified BRAF variants in the presence and absence of DHAA.

[10] = biological target: BRAF V600R-MEK1 binding (Homo sapiens, UniProt P15056, V600R); assay: MEK1 binding to BRAF mutants; assay type: biochemical
[11] = biological target: T2, FLAG-tagged BRAF V600E (Homo sapiens, UniProt P15056, V600E); assay: cellular thermal shift assay, lysates of transfected 293T cells; assay type: binding; details: 400 μM
T2 construct: FLAG; expressed in transfected cells; host or cells: 293T cells (lysates)
Excerpt: as §1

[12] = tested on: Me1-ST cells expressing BRAF V600E; assay: immortalized melanocyte treatment: proliferation, MEK-ERK activation, BRAF-MEK1 binding; assay type: cell-based; details: DHAA plus acetoacetate rescue treatment
[13] = tested on: diverse BRAF V600E-expressing cells; assay: DHAA with or without acetoacetate treatment of cells; assay type: cell-based; details: DHAA plus acetoacetate treatment
[14] = tested on: other BRAF mutants-MEK1 binding; assay: MEK1 binding to BRAF mutants; assay type: biochemical
[15] = biological target: BRAF V600D-MEK1 binding (Homo sapiens, UniProt P15056, V600D); assay: MEK1 binding to BRAF mutants; assay type: biochemical
[16] = biological target: T1, BRAF V600E; assay: BRAF V600E kinase activity (Vmax and Km), MEK1 as substrate; assay type: biochemical; details: acetoacetate binding; MEK1 as substrate
Protocol: as §2

[17] = assay type: physicochemical
Protocol: as §3

[18] = biological target: BRAF V600D (Homo sapiens, UniProt P15056, V600D); assay: 14C-labeled acetoacetate binding assay
Protocol: as §4, §5

[19] = biological target: BRAF V600R (Homo sapiens, UniProt P15056, V600R); assay: 14C-labeled acetoacetate binding assay
Protocol: as §4, §5

[20] = biological target: T1, BRAF V600E; assay: 14C-labeled acetoacetate binding assay (radiometric metabolite-protein interaction)
Protocol: as §4, §5

[21] = biological target: T3, V600E mutant of an active, truncated C-terminal domain of BRAF (tBRAF, 416-766 aa) (Homo sapiens, UniProt P15056, V600E); assay: 14C-labeled acetoacetate binding assay
T3 construct: truncated C-terminal domain of BRAF (tBRAF, 416-766 aa)
Protocol: as §5

[22] = acetoacetate injection in mice treated with fluvastatin, niacin or fenofibrate
[23] = DHAA plus intraperitoneal acetoacetate
[24] = increasing concentrations of 14C-labeled acetoacetate

T1 sequence (P15056 whole entry V600E): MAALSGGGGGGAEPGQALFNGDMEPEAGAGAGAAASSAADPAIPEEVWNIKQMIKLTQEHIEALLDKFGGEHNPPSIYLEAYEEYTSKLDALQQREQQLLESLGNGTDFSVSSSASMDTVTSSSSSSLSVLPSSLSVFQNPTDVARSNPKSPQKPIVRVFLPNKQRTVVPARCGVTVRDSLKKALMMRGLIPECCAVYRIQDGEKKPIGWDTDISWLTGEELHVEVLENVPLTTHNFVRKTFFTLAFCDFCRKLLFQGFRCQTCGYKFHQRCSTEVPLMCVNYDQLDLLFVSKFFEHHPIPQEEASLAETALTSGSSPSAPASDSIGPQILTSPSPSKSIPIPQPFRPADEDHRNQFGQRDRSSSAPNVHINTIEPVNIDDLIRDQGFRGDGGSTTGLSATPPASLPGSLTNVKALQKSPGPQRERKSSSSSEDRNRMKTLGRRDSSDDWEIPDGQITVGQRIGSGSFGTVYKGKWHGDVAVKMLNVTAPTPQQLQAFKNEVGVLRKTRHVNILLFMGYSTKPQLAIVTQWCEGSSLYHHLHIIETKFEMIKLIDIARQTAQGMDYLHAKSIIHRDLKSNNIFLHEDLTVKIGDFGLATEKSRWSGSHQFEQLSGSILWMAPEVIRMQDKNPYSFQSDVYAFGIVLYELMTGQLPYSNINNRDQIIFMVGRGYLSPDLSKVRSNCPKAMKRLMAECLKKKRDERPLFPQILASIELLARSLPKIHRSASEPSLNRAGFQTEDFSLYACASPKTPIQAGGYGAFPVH
BRAF V600E-MEK1 binding, sequence (P15056 whole entry V600E): as above
BRAF V600D, sequence (P15056 whole entry V600D): as the sequence (P15056 whole entry V600E) above, with E600D counted along it
BRAF V600R, sequence (P15056 whole entry V600R): as the sequence (P15056 whole entry V600E) above, with E600R counted along it
T2 sequence (P15056 whole entry V600E): as the sequence (P15056 whole entry V600E) above
T3 sequence (P15056 416-766 V600E): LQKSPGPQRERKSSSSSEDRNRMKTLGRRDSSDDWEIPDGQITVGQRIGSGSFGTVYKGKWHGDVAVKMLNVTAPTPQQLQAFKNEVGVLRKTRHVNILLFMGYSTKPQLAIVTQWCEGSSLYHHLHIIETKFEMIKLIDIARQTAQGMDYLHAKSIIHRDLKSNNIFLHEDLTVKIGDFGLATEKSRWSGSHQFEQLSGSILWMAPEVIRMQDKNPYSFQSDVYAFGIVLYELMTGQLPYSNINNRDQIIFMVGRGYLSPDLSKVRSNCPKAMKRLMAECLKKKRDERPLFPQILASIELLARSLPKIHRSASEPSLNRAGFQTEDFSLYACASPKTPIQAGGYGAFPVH
BRAF V600D-MEK1 binding, sequence (P15056 whole entry V600D): as the sequence (P15056 whole entry V600E) above, with E600D counted along it
BRAF V600D-MEK1 binding, sequence (Q02750 whole entry partner): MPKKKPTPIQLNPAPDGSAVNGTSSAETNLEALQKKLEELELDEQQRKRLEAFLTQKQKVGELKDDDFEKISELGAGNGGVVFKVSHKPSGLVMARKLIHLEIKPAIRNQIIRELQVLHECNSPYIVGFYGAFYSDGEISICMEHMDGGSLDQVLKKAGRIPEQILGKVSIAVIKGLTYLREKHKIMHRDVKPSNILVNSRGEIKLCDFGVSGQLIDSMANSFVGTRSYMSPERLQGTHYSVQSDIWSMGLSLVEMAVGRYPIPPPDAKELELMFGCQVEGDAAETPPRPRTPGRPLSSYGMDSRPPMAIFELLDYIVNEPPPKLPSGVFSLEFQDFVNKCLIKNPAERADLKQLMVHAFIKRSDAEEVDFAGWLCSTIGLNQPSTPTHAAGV
BRAF V600R-MEK1 binding, sequence (P15056 whole entry V600R): as the sequence (P15056 whole entry V600E) above, with E600R counted along it
BRAF V600R-MEK1 binding, sequence (Q02750 whole entry partner): as the sequence (Q02750 whole entry partner) above

SMILES: C[C@@H](O)CC(=O)O [3HB, D-β-hydroxybutyrate]
- acetoacetate or 3HB levels in urine [1]: did not alter
- serum 3HB levels [1]: increased 3HB
- BRAF-MEK1 binding in tumors [2]: did not affect
- cell proliferation rates in tumors (Ki67 IHC staining) [2]: did not affect
- phosphorylation of MEK1 and ERK1/2 (MEK-ERK activation) in tumors [2]: did not affect
- xenograft tumor growth (growth rates, sizes, masses) [2]: had no effect on growth rates or masses of tumor xenografts
- serum levels of 3HB (β-hydroxybutyrate) ([3]; effect of treatment): increased serum levels of β-hydroxybutyrate

SMILES: [Cl-].[Li+] [lithium chloride]
- binding in thermal melt shift assay [4]: did not bind
- promotion of association between purified BRAF V600E and MEK1 [5]: did not
- serum cholesterol levels ([3]; effect of treatment): nor did it affect
- serum levels of 3HB (β-hydroxybutyrate) ([3]; effect of treatment): nor did it affect
- BRAF V600E-MEK1 binding [6]: did not affect
- cell proliferation rates [6]: did not affect
- phosphorylation levels of MEK1 or ERK1/2 [6]: did not affect
- BRAF V600E-MEK1 binding in tumors [7]: nor did it affect
- cell proliferation rates in tumors (Ki67 IHC staining) [7]: nor did it affect
- xenograft tumor growth (growth rates, sizes, masses) [7]: did not affect tumor growth potential

SMILES: CC(C)=O [acetone]
- binding in thermal melt shift assay [4]: did not bind
- promotion of association between purified BRAF V600E and MEK1 [5]: did not
- BRAF V600E-MEK1 binding [6]: did not affect
- cell proliferation rates [6]: did not affect
- phosphorylation levels of MEK1 or ERK1/2 [6]: did not affect

SMILES: CC(=O)CC(=O)O [acetoacetate]
- rescue by acetoacetate injection of fenofibrate-decreased tumor growth ([8]; intraperitoneal acetoacetate plus fenofibrate): effectively rescued the decreased tumor growth
- reversal by acetoacetate injection of hypolipidemic agents' inhibitory effects (MEK1/ERK1/2 phosphorylation, BRAF V600E-MEK1 association, Ki67) ([8]; tumors): effectively reversed
- acetoacetate or 3HB levels in urine [1]: did not alter
- serum acetoacetate levels [1]: increased serum acetoacetate
- binding of 14C-labeled acetoacetate [9]: but not to a negative control mutant V600A or to other clinically reported BRAF mutants
- promotion of association between purified BRAF V600E and MEK1 [5]: promoted MEK1 binding
- effect of acetoacetate injection on tumor growth potential ([2]; intraperitoneal acetoacetate, fenofibrate study): had no effect on tumor growth potential
- BRAF-MEK1 binding in tumors [2]: did not affect
- cell proliferation rates in tumors (Ki67 IHC staining) [2]: did not affect
- phosphorylation of MEK1 and ERK1/2 (MEK-ERK activation) in tumors [2]: did not affect
- xenograft tumor growth (growth rates, sizes, masses) [2]: had no effect on growth rates or masses of tumor xenografts
- serum levels of acetoacetate ([3]; acetoacetate injection in DHAA-treated A375 xenograft mice): increased serum levels of acetoacetate
- serum 3HB levels [3, 22]: did not affect 3HB levels
- serum acetoacetate levels [3, 22]: rescued the decreased serum acetoacetate levels
- serum levels of 3HB (β-hydroxybutyrate) ([3]; effect of treatment): did not affect serum levels of 3HB
- serum levels of acetoacetate ([3]; effect of treatment): increased serum levels of acetoacetate
- promotion of MEK1 binding to BRAF V600R with increased MEK1 phosphorylation [10]: promoted MEK1 binding
- binding in cellular thermal shift assay [11]: bound only to BRAF V600E
- reversal by acetoacetate of the inhibitory effect of DHAA on cell proliferation [12]: did not reverse
- reversal by acetoacetate of DHAA-decreased MEK-ERK activation [13]: could not be reversed
- reversal by acetoacetate of DHAA-reduced cell proliferation [13]: could not be reversed
- promotion of MEK1 binding to other BRAF mutants [14]: but not to other BRAF mutants
- promotion of MEK1 binding to BRAF V600D with increased MEK1 phosphorylation [15]: promoted MEK1 binding
- Km of BRAF V600E [16]: slightly decreased Km
- Vmax of BRAF V600E [16]: increased Vmax
- reversal by acetoacetate injection of DHAA inhibition of BRAF V600E-MEK1 binding in tumors [7, 23]: did not reverse
- reversal by acetoacetate injection of DHAA inhibition of MEK1 and ERK1/2 phosphorylation in tumors [7, 23]: did not reverse
- reversal by acetoacetate injection of DHAA inhibition of cell proliferation rates (Ki67) in tumors [7, 23]: did not reverse
- reversal by acetoacetate injection of fluvastatin- or niacin-attenuated tumor growth ([7]; intraperitoneal acetoacetate plus oral fluvastatin or niacin): could be reversed
- BRAF V600E-MEK1 binding in tumors [7]: enhanced BRAF V600E-MEK1 association
- cell proliferation rates in tumors (Ki67 IHC staining) [7]: enhanced cell proliferation rates
- phosphorylation of MEK1 and ERK1/2 in tumors [7]: enhanced phosphorylation of MEK1 and ERK1/2
- xenograft tumor growth (growth rates, sizes, masses) [7]: increased growth rates and masses of xenograft tumors; also recorded: increased tumor sizes; also recorded: selectively promotes
- reversal by acetoacetate injection of hypolipidemic agents' inhibitory effects (MEK1/ERK1/2 phosphorylation, BRAF V600E-MEK1 association, Ki67) ([7]; tumors): effectively reversed
- stability of anion form relative to acid form [17]: approximately 55 times
- binding of 14C-labeled acetoacetate [18]: bound
- Kd [18, 24]: ~93 µM
- binding of 14C-labeled acetoacetate [19]: bound
- Kd [19, 24]: ~113 µM
- Kd [20, 24]: ~92 µM
- binding of 14C-labeled acetoacetate ([20]; purified BRAF V600E): binds to purified BRAF V600E; also recorded: specifically bound
- binding of 14C-labeled acetoacetate [21]: specifically bound

SMILES: O=C(O)c1cccnc1 [niacin]
- serum cholesterol levels ([3]; effect of treatment): marginally decreased serum cholesterol levels
- serum levels of acetoacetate ([3]; effect of treatment): reduced serum levels of acetoacetate; also recorded: decrease serum acetoacetate levels
- BRAF V600E-MEK1 binding in tumors [7]: decreased BRAF V600E-MEK1 association
- cell proliferation rates in tumors (Ki67 IHC staining) [7]: reduced cell proliferation rates
- phosphorylation of MEK1 and ERK1/2 in tumors [7]: decreased phosphorylation of MEK1 and ERK1/2
- xenograft tumor growth (growth rates, sizes, masses) [7]: effectively attenuated tumor growth potential; also recorded: reduce BRAF V600E tumor growth

— patent publication US10792274B2, “Dehydroacetic acid (DHAA) and derivative for uses in treating cancer” (Emory University, priority 2016, dated 2020)
